According to BigSolDB 2.1:

Nc1nc(N)nc(NC2CC2)n1
solubility (mole fraction)
Details	in acetic acid	in acetone	in acrylic acid	in ethanol	in isobutanol	in isopentanol	in isopropanol	in methanol
283.15 K	–	0.000486	–	0.000916	0.000396	0.000469	0.000465	0.00199
288.15 K	–	0.000535	–	0.00107	0.000483	0.000592	0.000529	0.00224
293.15 K	0.0128	0.000617	0.0341	0.00127	0.000594	0.000725	0.000638	0.00251
298.15 K	0.0155	0.00071	0.0413	0.00149	0.000702	0.00087	0.000751	0.00279
303.15 K	0.0187	0.000805	0.0492	0.00172	0.00084	0.00104	0.000915	0.0031
308.15 K	0.0227	0.00091	0.0581	0.00205	0.000983	0.00127	0.00109	0.00344
313.15 K	0.0275	0.00103	0.0683	0.00253	0.00115	0.00148	0.00125	0.00378
318.15 K	0.033	0.00114	0.0785	0.00299	0.00131	0.0018	0.00146	0.00416
323.15 K	0.0395	0.00127	0.09	0.00355	0.0015	0.00214	0.00172	0.00456
328.15 K	0.0471	–	0.101	–	–	–	–	–
333.15 K	0.0562	–	0.112	–	–	–	–	–
